Measured values reported in patent US12391669B2, “Substituted pyrimidines as IRE1 kinase inhibitors” (THE REGENTS OF THE UNIVERSITY OF CALIFORNIA, priority 2018, dated 2025).
Read-outs that look alike come from different tables or passages of the source.

Columns and labels:
Type in all cases: biochemical
[1] = target: IRE1β kinase (Homo sapiens (Human), UniProt Q76MJ5); assay: IRE1β kinase IC50
[2] = target: IRE1α kinase (Homo sapiens (Human), UniProt O75460); assay: IRE1α kinase IC50
[3] = target: IRE1α RNase (Homo sapiens (Human), UniProt O75460); assay: IRE1α RNase IC50
IRE1α RNase, sequence (O75460 19-977): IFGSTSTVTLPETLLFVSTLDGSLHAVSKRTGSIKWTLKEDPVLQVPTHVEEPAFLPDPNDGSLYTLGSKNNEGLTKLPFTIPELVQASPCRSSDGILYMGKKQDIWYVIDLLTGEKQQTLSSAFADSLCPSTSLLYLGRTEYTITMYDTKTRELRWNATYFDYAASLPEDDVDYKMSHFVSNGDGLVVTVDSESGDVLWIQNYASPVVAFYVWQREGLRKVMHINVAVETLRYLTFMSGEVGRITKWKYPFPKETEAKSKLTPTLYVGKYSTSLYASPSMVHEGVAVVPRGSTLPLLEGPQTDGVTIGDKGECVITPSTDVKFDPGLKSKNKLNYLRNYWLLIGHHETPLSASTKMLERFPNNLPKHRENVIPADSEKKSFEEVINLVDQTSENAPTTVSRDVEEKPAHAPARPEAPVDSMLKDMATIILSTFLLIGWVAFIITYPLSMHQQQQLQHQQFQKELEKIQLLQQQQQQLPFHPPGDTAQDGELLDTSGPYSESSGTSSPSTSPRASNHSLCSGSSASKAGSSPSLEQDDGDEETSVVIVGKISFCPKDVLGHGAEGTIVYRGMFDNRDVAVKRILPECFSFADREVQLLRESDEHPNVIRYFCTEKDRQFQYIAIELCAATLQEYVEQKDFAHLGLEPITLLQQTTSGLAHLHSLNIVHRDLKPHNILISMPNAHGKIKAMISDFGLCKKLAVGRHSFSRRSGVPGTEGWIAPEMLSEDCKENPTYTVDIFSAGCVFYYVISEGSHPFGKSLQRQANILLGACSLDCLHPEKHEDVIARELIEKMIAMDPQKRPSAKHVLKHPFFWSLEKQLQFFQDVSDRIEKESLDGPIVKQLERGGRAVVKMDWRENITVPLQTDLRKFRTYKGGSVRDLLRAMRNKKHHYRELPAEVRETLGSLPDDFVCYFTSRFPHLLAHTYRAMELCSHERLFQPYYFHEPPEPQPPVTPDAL

IRE1α kinase, sequence (O75460 19-977): as above
IRE1β kinase, sequence (Q76MJ5 35-926): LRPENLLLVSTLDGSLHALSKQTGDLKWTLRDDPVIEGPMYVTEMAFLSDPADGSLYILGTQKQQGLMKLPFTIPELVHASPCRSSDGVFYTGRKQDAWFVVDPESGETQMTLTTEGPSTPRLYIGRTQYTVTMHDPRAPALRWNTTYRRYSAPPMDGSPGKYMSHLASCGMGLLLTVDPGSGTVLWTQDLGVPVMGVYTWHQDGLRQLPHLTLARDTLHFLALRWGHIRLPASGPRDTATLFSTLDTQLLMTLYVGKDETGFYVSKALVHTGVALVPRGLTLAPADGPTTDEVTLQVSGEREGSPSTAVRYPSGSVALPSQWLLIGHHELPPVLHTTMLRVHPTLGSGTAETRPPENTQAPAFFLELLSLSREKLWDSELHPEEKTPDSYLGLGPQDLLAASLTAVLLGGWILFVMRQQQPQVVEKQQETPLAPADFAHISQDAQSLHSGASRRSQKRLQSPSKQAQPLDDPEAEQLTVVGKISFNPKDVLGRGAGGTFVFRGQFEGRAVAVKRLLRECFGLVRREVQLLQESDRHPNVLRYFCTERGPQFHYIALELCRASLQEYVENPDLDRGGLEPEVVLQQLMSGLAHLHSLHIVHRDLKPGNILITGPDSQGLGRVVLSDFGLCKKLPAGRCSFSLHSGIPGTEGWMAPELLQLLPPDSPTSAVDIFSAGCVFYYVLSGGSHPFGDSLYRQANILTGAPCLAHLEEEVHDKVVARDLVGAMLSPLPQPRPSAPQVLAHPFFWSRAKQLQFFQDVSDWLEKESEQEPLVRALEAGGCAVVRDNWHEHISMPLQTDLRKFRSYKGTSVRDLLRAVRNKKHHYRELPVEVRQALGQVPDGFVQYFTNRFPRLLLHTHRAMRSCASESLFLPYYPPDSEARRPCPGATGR

| Structure (SMILES) | IC50 [1] [nM] | IC50 [2] [nM] | IC50 ([3]; (HF)) [nM] | IC50 ([2]; (HF)) [nM] | other results |
| --- | --- | --- | --- | --- | --- |
| c1cc(Cc2nc3ccccc3[nH]2)cc(Oc2ncsc2-c2ccnc(N[C@H]3CCCNC3)n2)c1 [compound 35, (S)-4-(4-(3-((1H-benzo[d]imidazol-2-yl)methyl)phenoxy)thiazol-5-yl)-N-(piperidin-3-yl)pyrimidin-2-amine] |  |  | 153 |  |  |
| Cc1ccc(C(=O)NCc2ccccc2Cl)cc1Oc1ncsc1-c1ccnc(N[C@H]2CCCNC2)n1 [compound 20, (S)—N-(2-chlorobenzyl)-4-methyl-3-(5-(2-(piperidin-3-ylamino)pyrimidin-4-yl)thiazol-4-yloxy) benzamide] |  |  |  | 55 | IRE1α RNase IC50 ([3]; result in words, pIRE1α): No inhibition of pIRE1α |
| O=S(=O)(Cc1ccccc1Cl)Nc1ccc(Oc2ncsc2-c2ccnc(N[C@H]3CCCNC3)n2)cc1F [compound 11, (S)-1-(2-chlorophenyl)-N-(2-fluoro-4-(5-(2-(piperidin-3-ylamino)pyrimidin-4-yl)thiazol-4-yloxy)phenyl)methane sulfonamide] |  |  | 24 | 119 |  |
| Cc1ccc(C(=O)Nc2ccccc2Cl)cc1Oc1ncsc1-c1ccnc(N[C@H]2CCCNC2)n1 [compound 16, (S)—N-(2-chlorophenyl)-4-methyl-3-(5-(2-(piperidin-3-ylamino)pyrimidin-4-yl)thiazol-4-yloxy)benzamide] | > 10000 |  |  | 307 | IC50 ([2]; (RB)): 228 nM |
| O=C(NCc1ccccc1Cl)c1cccc(Oc2ncsc2-c2ccnc(N[C@H]3CCCNC3)n2)c1 [compound 51, (S)—N-(2-chlorobenzyl)-3-(5-(2-(piperidin-3-ylamino)pyrimidin-4-yl)thiazol-4-yloxy)benzamide] |  |  |  | 524 |  |
| O=S(=O)(Nc1cccc2c(Oc3ncsc3-c3ccnc(N[C@H]4CCCNC4)n3)cccc12)c1ccccc1Cl [compound 47, (S)-2-chloro-N-(5-(5-(2-(piperidin-3-ylamino)pyrimidin-4-yl)thiazol-4-yloxy)naphthalen-1-yl)benzenesulfonamide] | 181 | 10 | 8.3 |  |  |
| Cc1cc(NS(=O)(=O)c2ccccc2Cl)ccc1Oc1ncsc1-c1ccnc(N[C@H]2CCCNC2)n1 [compound 39] |  |  |  | 1140 |  |
| c1ccc2[nH]c(Cc3ccc(Oc4ncsc4-c4ccnc(N[C@H]5CCCNC5)n4)cc3)nc2c1 [compound 30, (S)-4-(4-(4-((1H-benzo[d]imidazol-2-yl)methyl)phenoxy)thiazol-5-yl)-N-(piperidin-3-yl)pyrimidin-2-amine] | 8400 | 439 |  |  | IC50 [3]: 118 nM |
| O=S(=O)(NCc1cccc(Oc2ncsc2-c2ccnc(N[C@H]3CCCNC3)n2)c1)c1ccccc1Cl [compound 43, (S)-2-chloro-N-(3-(5-(2-(piperidin-3-ylamino)pyrimidin-4-yl)thiazol-4-yloxy)benzyl)benzenesulfonamide] |  |  |  | 1600 |  |
| O=S(=O)(Nc1ccc(Oc2ncsc2-c2ccnc(N[C@H]3CCCNC3)n2)cc1F)c1ccccc1Cl [compound 25] | 32 | 117 | 46 |  |  |

The next lines start with results.

| IC50 [1] [nM] | IC50 [2] [nM] | IC50 ([3]; (HF)) [nM] | IC50 ([2]; (HF)) [nM] | Structure (SMILES) | other results |
| --- | --- | --- | --- | --- | --- |
| > 10000 | 7300 |  |  | c1ccc2[nH]c(Cc3ccc(Oc4nccnc4-c4ccnc(N[C@H]5CCCNC5)n4)cc3)nc2c1 [compound 88, (S)-4-(3-(4-((1H-benzo[d]imidazol-2-yl)methyl)phenoxy)pyrazin-2-yl)-N-(piperidin-3-yl)pyrimidin-2-amine] |  |
|  |  |  | 3180 | Cc1ccc(C(=O)N(C)Cc2ccccc2Cl)cc1Oc1ncsc1-c1ccnc(N[C@H]2CCCNC2)n1 [compound 55, (S)—N-(2-chlorobenzyl)-N,4-dimethyl-3-(5-(2-(piperidin-3-ylamino)pyrimidin-4-yl)thiazol-4-yloxy)benzamide] |  |
| 1570 | 961 |  |  | O=S(=O)(Cc1ccccc1Cl)Nc1ccc(Oc2nccnc2-c2ccnc(N[C@H]3CCCNC3)n2)cc1F [compound 73, (S)-1-(2-chlorophenyl)-N-(2-fluoro-4-(3-(2-(piperidin-3-ylamino)pyrimidin-4-yl)pyrazin-2-yloxy)phenyl) methane sulfonamide] |  |
| 120 | 98 | 117 |  | Cc1ccc2c(NS(=O)(=O)c3ccccc3Cl)cccc2c1Oc1nccnc1-c1ccnc(N[C@H]2CCCNC2)n1 [compound 96] |  |
| 1980 | 296 |  |  | O=S(=O)(Nc1ccc(Oc2nccnc2-c2ccnc(N[C@H]3CCCNC3)n2)c2ccccc12)c1ccccc1Cl [compound 84, (S)-2-chloro-N-(4-(3-(2-(piperidin-3-ylamino)pyrimidin-4-yl)pyrazin-2-yloxy)naphthalen-1-yl)benzenesulfonamide] |  |
| 2100 | 6200 |  |  | O=S(=O)(Nc1ccc(Oc2nccnc2-c2ccnc(N[C@H]3CCCNC3)n2)cc1F)c1ccccc1Cl [compound 77, (S)-2-chloro-N-(2-fluoro-4-(3-(2-(piperidin-3-ylamino)pyrimidin-4-yl)pyrazin-2-yloxy)phenyl)benzenesulfonamide] |  |
|  |  | 19 | 63 | Cc1nc(Oc2ccc(NS(=O)(=O)c3ccccc3Cl)c3ccccc23)c(-c2ccnc(N[C@H]3CCCNC3)n2)s1 [compound 67, (S)-2-chloro-N-(4-(2-methyl-5-(2-(piperidin-3-ylamino)pyrimidin-4-yl)thiazol-4-yloxy)naphthalen-1-yl)benzenesulfonamide] |  |
